Tests used:
[1] = biological target: T1, GBA (Homo sapiens, UniProt P04062); assay: ABP labeling of β-D-glucosidases in HEK293T cell lysate, GBA; assay type: biochemical; conditions: 30 min, pH 6.0
T1 construct: HEK293T cells that contain endogenous GBA; endogenous in cells; host or cells: HEK293T (ATCC CRL-3216) overexpressing GBA2 and GBA3
T1 sequence (P04062 40-536): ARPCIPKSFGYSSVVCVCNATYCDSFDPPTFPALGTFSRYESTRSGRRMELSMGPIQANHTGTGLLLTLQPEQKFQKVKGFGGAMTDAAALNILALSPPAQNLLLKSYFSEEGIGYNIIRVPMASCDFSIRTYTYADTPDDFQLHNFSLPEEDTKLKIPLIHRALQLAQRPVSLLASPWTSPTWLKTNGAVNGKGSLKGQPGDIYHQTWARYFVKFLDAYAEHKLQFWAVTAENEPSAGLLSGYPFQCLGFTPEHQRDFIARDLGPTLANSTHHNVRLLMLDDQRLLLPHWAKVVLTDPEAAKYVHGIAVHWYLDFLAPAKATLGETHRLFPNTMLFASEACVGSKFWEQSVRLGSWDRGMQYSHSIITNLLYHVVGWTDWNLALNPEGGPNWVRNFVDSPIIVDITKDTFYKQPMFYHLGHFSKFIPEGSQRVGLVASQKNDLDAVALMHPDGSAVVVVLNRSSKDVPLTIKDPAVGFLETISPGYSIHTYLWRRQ
Procedure: (§1) We next investigated, by ABPP, the GBA/GBA2/GBA3 activity and selectivity of β‐D‐xylo‐cyclophellitol aziridine ABPs 6 and 8 in comparison to those of GBA‐specific ABP 9 [31] or ABP 10.
(§2) Figure 4 (A) ABP labeling of β‐D‐glucosidases. A lysate of HEK293T cells expressing human GBA, GBA2 and GBA3 was incubated with indicated ABPs (6, 9 or 10) for 30 min at pH 6.0. Fluorescently labeled proteins were visualized after SDS‐PAGE. (B) Labeling with ABP 6 of wild type or mutant GBA2 (E527G nucleophile mutation and D667G acid/base mutation) expressed in HEK293T cells.
(§3) ABP labeling procedure: Glycosidases were labeled with excess fluorescent ABPs at optimum conditions. […] After ABP incubation, proteins were denatured by boiling the samples with 5× Laemmli buffer (50 % (v/v) 1 M Tris‐HCl, pH 6.8, 50 % (v/v) 100 % glycerol, 10 % (w/v) DTT, 10 % (w/v) SDS, 0.01 % (w/v) bromophenol blue) for 5 min at 98 °C, and separated by electrophoresis on 10 % (w/v) SDS‐PAGE gels running continuously at 90 V. Wet slab‐gels were scanned on fluorescence using the Typhoon FLA 9500 (GE Healthcare) at λEX 473 nm and λEM≥510 nm for green fluorescent ABP 8; and at λEX 635 nm and λEM≥665 nm for ABP 6, 9 and 10. ABP‐emitted fluorescence was quantified using ImageQuant software (GE Healthcare, Chicago, IL, USA) and curve‐fitted using Prism 8.0 (GraphPad Software). […]

[2] = biological target: T2, GBA2 (Homo sapiens, UniProt Q9HCG7); assay: ABP labeling of β-D-glucosidases in HEK293T cell lysate, GBA2; assay type: biochemical; conditions: 30 min, pH 6.0
T2 construct: expressed in transfected cells; host or cells: HEK293T (GBA/GBA2 KO background for the fluorogenic assay; endogenous-GBA background with GBA2 and GBA3 overexpressed for ABPP and intact-cell assays)
T2 sequence (Q9HCG7 1-927): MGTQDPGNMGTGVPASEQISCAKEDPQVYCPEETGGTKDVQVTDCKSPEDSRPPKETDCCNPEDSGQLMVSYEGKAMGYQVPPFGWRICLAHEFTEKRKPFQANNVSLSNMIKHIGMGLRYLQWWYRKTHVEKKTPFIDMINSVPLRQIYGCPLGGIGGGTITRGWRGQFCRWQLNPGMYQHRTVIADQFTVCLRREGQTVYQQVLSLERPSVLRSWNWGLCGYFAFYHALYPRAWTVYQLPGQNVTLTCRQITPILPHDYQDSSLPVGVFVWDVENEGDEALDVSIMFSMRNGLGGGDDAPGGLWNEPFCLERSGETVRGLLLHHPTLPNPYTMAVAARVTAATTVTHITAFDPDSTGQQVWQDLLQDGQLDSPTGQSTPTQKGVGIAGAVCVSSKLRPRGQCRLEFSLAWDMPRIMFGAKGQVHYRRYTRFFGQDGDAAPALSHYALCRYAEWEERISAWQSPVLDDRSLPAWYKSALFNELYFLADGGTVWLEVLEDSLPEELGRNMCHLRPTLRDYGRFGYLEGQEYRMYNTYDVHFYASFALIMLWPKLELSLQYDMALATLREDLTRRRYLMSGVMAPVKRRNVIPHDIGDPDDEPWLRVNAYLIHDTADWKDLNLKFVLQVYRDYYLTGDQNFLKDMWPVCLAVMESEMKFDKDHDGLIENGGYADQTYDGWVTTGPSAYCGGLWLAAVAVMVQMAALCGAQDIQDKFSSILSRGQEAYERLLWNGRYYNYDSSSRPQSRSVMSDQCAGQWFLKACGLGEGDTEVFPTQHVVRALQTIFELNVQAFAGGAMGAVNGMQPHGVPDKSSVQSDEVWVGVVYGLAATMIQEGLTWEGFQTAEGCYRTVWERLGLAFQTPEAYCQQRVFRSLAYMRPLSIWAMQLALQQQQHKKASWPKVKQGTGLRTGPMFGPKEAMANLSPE
Procedure: as §1, §2, §3

Row | SMILES | selectivity of ABP labeling towards GBA over GBA2 and GBA3 [1] | labeling pattern of GBA and GBA2 [2]
1 | CN1/C(=C/C=C/C=C/C2=[N+](CCCCCC(=O)NCc3cn(C[C@@H]4[C@@H](O)[C@H](O)[C@@H](O)[C@@H]5O[C@H]45)nn3)c3ccccc3C2(C)C)C(C)(C)c2ccccc21 [ABP 9, reference compound] | most selective ABP towards GBA over GBA2 and GBA3 | 
2 | CN1/C(=C/C=C/C=C/C2=[N+](CCCCCC(=O)NCc3cn(CCCCCCCCN4[C@H]5[C@H](O)[C@@H](O)[C@H](O)C[C@H]54)nn3)c3ccccc3C2(C)C)C(C)(C)c2ccccc21 (some centres unmarked) [ABP 6] |  | very similar to that of the broad‐specific β‐D‐glucosidase ABP 10
